{"source": "patent US6632789B1", "about": "“Methods for modulating T cell responses by manipulating intracellular signal transduction” (The United States of America as represented by the …, priority 1994, dated 2003)", "key": {"[1]": {"test_system": "CD28-mediated calcium flux in Jurkat cells", "assay": "Anti-CD28 antibody-induced calcium flux in Jurkat cells", "type": "cell-based", "conditions": "Jurkat cells stimulated with anti-CD28 antibody; FIG. 4", "procedure": "In this example, the effect of pharmacological inhibitors on calcium flux in Jurkat cells induced by anti-CD28 antibodies was examined. The pharmacological inhibitors studied were wortmannin, which inhibits the activity of PI3K, and herbimycin A, which inhibits the activity of protein tyrosine kinases. Jurkat cells were stimulated with an anti-CD28 antibody, either in medium alone or in the presence of wortmannin or herbimycin A, and the mean calcium concentration (nM) in the cells was measured over several minutes following stimulation."}, "[2]": {"test_system": "CD28-induced IL-2 production", "conditions": "cited from earlier work"}, "[3]": {"test_system": "human T cells", "assay": "IL-2 production by human T cells after 24 hours (ELISA of supernatants)", "type": "cell-based", "conditions": "for IC50: T-cell", "procedure": "In this example, the effect of an inhibitor of phosphatidylinositol 3-kinase on CD28-dependent production of interleukin-2 by T cells was examined. In a first series of experiments, the effect of T cell stimulation through CD28, in conjunction with stimulation through CD3, on IL-2 production was assessed in the absence of wortmannin. Highly purified human peripheral blood T cells were incubated for 24 hours with an immobilized anti-CD3 antibody (OKT3) alone or together with either an anti-CD28 antibody (9.3) or mitomycin C-treated CHO cells, either untransfected or transfected to express B7-1 or B7-2. Increasing numbers of CHO cells were tested (0.5×10^6 to 4×10^6). After culture for 24 hours, the culture supernatants were assayed for IL-2 production by ELISA by standard techniques.\nIn a next series of experiments, resting human T cells were stimulated with either: 1) immobilized OKT3+CHO-B7-1, 2) immobilized OKT3+CHO-B7-2, 3) immobilized OKT3+CHO-B7-1+B7-2, 4) PMA+CHO-B7-1 or 5) PMA+B7-2. Stimulation of T cells was performed in media alone or in media containing wortmannin at concentrations between 1 nM and 1 μM. Twenty-four hours following culture, the supernatants were assayed for IL-2 production by ELISA. […] Wortmannin-mediated inhibition of IL-2 production was dose dependent. The ID50 for inhibition of B7-2 -mediated stimulation was approximately 10 nM. The ID50 for inhibition of B7-1-mediated stimulation was between 10 and 100 nM."}}, "note": "Read-outs that look alike come from different tables or passages of the source.", "data": [{"molecule": "CO[C@H]1[C@@H](OC)C[C@H](C)[C@@H](OC)C2=CC(=O)C=C(NC(=O)/C(C)=C/C=C\\[C@H](OC)[C@@H](OC(N)=O)/C(C)=C/[C@@H]1C)C2=O", "note": "[herbimycin A]", "values": [{"measurement": "inhibition of CD28 antibody-induced calcium flux", "setting": "[1]", "value": "capable of inhibiting"}, {"measurement": "inhibition of CD28-induced IL-2 production", "setting": "[2]", "value": "can inhibit"}]}, {"molecule": "COC[C@H]1OC(=O)c2coc3c2[C@@]1(C)C1=C(C3=O)[C@@H]2CCC(=O)[C@@]2(C)C[C@H]1OC(C)=O", "note": "[wortmannin]", "values": [{"measurement": "IC50", "setting": "[3]; resting human T cells, immobilized OKT3+CHO-B7-1, 24 hours, read-out: ID50 for inhibition of B7-1-mediated stimulation of IL-2 production", "value": "10 to 100", "unit": "nM"}, {"measurement": "IC50", "setting": "[3]; resting human T cells, immobilized OKT3+CHO-B7-2, 24 hours, read-out: ID50 for inhibition of B7-2-mediated stimulation of IL-2 production", "value": "~10", "unit": "nM"}, {"measurement": "toxicity to the cells", "setting": "[3]; resting human T cells, at the ID50 doses (10 to 100 nM)", "value": "not generally toxic"}, {"measurement": "inhibition of IL-2 production stimulated by PMA together with membrane-bound B7-1 or B7-2", "setting": "[3]; resting human T cells, wortmannin at concentrations as high as 1 μM", "value": "not inhibited"}]}, {"molecule": "OKT3: immobilized anti-CD3 antibody (OKT3)", "values": [{"measurement": "IL-2 production", "setting": "[3]; purified human peripheral blood T cells, 24 hours, immobilized OKT3 alone, FIG. 6", "value": "did not produce IL-2"}]}]}
